In patent US20060100235A1, “Pharmaceutical use of substituted 1,2,4-triazoles” (Novo Nordisk A/S, priority 2003, published 2006):

Target: T1, h-11βHSD1 (Homo sapiens, UniProt P28845)
T1 construct: made in house
Assay: 11βHSD1 enzyme assay (scintillation proximity assay)
Format: biochemical
Settings: extract of yeast transformed with h-11βHSD1; 120 nM 3H-cortisone, 4 mM β-NADPH; 60 min at 30° C.
Method: Pharmacological Methods 11βHSD1 enzyme assay Materials
^3H-cortisone and anti-rabbit Ig coated scintillation proximity assay (SPA) beads were purchased from Amersham Pharmacia Biotech, β-NADPH was from Sigma and rabbit anticortisol antibodies were from Fitzgerald. An extract of yeast transformed with h-11βHSD1 (Hult et al., FEBS Lett, 441, 25 (1998)) was used as the source of enzyme. The test compounds were dissolved in DMSO (10 mM). All dilutions were performed in a buffer containing 50 mM TRIS-HCl (Sigma Chemical Co), 4 mM EDTA (Sigma Chemical Co), 0.1% BSA (Sigma Chemical Co), 0.01% Tween-20 (Sigma Chemical Co) and 0.005% bacitracin (Novo Nordisk A/S), pH=7.4. Optiplate 96 wells plates were supplied by Packard. The amount of ^3H-cortisol bound to the SPA beads was measured on TopCount NXT, Packard.
h-11βHSD1, 120 nM ^3H-cortisone, 4 mM β-NADPH, antibody (1:200), serial dilutions of test compound and SPA particles (2 mg/well) were added to the wells. The reaction was initiated by mixing the different components and was allowed to proceed under shaking for 60 min at 30° C. […] Data was analysed using GraphPad Prism software.

T1 sequence (P28845 whole entry): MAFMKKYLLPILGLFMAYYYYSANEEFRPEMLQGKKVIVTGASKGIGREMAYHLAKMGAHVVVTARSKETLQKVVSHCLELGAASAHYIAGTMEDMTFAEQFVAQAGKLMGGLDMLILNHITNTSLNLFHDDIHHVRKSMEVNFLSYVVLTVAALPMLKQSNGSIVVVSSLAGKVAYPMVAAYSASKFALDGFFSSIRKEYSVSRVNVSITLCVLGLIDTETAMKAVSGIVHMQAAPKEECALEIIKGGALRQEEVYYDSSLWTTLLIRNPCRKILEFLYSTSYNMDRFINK

| Compound | IC50 [nM] |
| --- | --- |
| CCn1c(SCC(=O)N2CCCc3ccccc32)nnc1-c1ccccc1Br [Comp A, 2-[5-(2-Bromo-phenyl)-4-ethyl-4H-[1,2,4]triazol-3-ylsulfanyl]-1-(3,4-dihydro-2H-quinolin-1-yl)-ethanone] | 160 |
| Cn1c(SCC(=O)c2ccccc2)nnc1C1CCCCC1 [Comp B, 2-(5-Cyclohexyl-4-methyl-4H-[1,2,4]triazol-3-ylsulfanyl)-1-phenyl-ethanone] | 190 |
